Experiment [1] has as its system green foxtail. Kind of experiment: postemergence herbicidal activity on green foxtail. To be noted: Setaria viridis, post-emergence, 0.3 Kg/Ha, after 12-17 days, read-out: POSTEMERGENCE HERBICIDAL ACTIVITY (% CONTROL) SETVI. The experiment is classed as in vivo. In a few lines:
(§1)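 Pre- and postemergence flats are sprayed side by side on a conveyor at a coverage of 1000 L/ha, with rates such as 3000 g/ha. Phytotoxicity is expressed as percent control after 12-17 days.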

In experiment [2] the test system is chickweed. Kind of experiment: preemergence herbicidal activity on chickweed. It counts as in vivo. To be noted: Stellaria media, pre-emergence, 0.3 Kg/Ha, after 12-17 days, read-out: PREEMERGENCE HERBICIDAL ACTIVITY (% CONTROL) STEME. In a few lines:
as §1

Experiment [3] concerns blackgrass. Kind of experiment: preemergence herbicidal activity on blackgrass. It counts as in vivo, Aloepecurus myosuroides. To be noted: Alopecurus myosuroides, pre-emergence, 0.3 Kg/Ha, after 12-17 days, read-out: PREEMERGENCE HERBICIDAL ACTIVITY (% CONTROL) ALOMY. In a few lines:
as §1

Experiment [4] has as its system chickweed. Put plainly: postemergence herbicidal activity on chickweed. It counts as in vivo. The settings on record: Stellaria media, post-emergence, 0.3 Kg/Ha, after 12-17 days, read-out: POSTEMERGENCE HERBICIDAL ACTIVITY (% CONTROL) STEME. In a few lines:
as §1

The test system of experiment [5] is soybean. Kind of experiment: postemergence herbicidal activity on soybean. It counts as in vivo, Glycine max var. Winchester. The settings on record: Glycine max, post-emergence, 0.3 Kg/Ha, after 12-17 days, read-out: POSTEMERGENCE HERBICIDAL ACTIVITY (% CONTROL) SOY. The method in brief:
as §1

In experiment [6] the test system is velvetleaf. Kind of experiment: preemergence herbicidal activity on velvetleaf. The experiment is classed as in vivo. To be noted: Abutilon theophrasti, pre-emergence, 0.3 Kg/Ha, after 12-17 days, read-out: PREEMERGENCE HERBICIDAL ACTIVITY (% CONTROL) ABUTH. In a few lines:
as §1

Experiment [7] deals with soybean. Put plainly: preemergence herbicidal activity on soybean. The experiment is classed as in vivo, Glycine max var. Winchester. The settings on record: Glycine max, pre-emergence, 0.3 Kg/Ha, after 12-17 days, read-out: PREEMERGENCE HERBICIDAL ACTIVITY (% CONTROL) SOY. In a few lines: as §1
The subject of experiment [8] is wheat. Kind of experiment: postemergence herbicidal activity on wheat. The experiment is classed as in vivo, Triticum aestivum var. Lew. The settings on record: Triticum aestivum, post-emergence, 0.3 Kg/Ha, after 12-17 days, read-out: POSTEMERGENCE HERBICIDAL ACTIVITY (% CONTROL) WHT. The method in brief: as §1
In experiment [9] the test system is green foxtail. Kind of experiment: preemergence herbicidal activity on green foxtail. The experiment is classed as in vivo. The settings on record: Setaria viridis, pre-emergence, 0.3 Kg/Ha, after 12-17 days, read-out: PREEMERGENCE HERBICIDAL ACTIVITY (% CONTROL) SETVI. In a few lines: as §1
Experiment [10] has as its system cocklebur. Put plainly: preemergence herbicidal activity on cocklebur. The experiment is classed as in vivo, Xanthium strumarium L. To be noted: Xanthium strumarium, pre-emergence, 0.3 Kg/Ha, after 12-17 days, read-out: PREEMERGENCE HERBICIDAL ACTIVITY (% CONTROL) XANPE. The procedure: The (oxaalkyl)phenyl-substituted heterocycles of this invention were tested for pre- and postemergence herbicidal activity using a variety of crops and weeds. The test plants included soybean (Glycine max var. Winchester),field corn (Zea mays var. Pioneer 3732), wheat (Triticum aestivum var. Lew), morningglory (Ipomea lacunosa or Ipomea hederacea), […] (Abutilon theophrasti), green foxtail (Setaria viridis), Johnsongrass (Sorghum halepense), blackgrass (Aloepecurus myosuroides), common chickweed (Stellaria media), and common cocklebur (Xanthium strumarium L.).
For preemergence testing, two disposable fiber flats (8 cm×15 cm×25 cm) for each rate of application of each candidate herbicide were filled to an approximate depth of 6.5 cm with steam-sterilized sandy loam soil. The soil was leveled and impressed with a template to provide five evenly spaced furrows 13 cm long and 0.5 cm deep in each flat. Seeds of soybean, wheat, corn, green foxtail, and johnsongrass were planted in the furrows of the first flat, and seeds of velvetleaf, morningglory, common chickweed, cocklebur, and blackgrass were planted in the furrows of the second flat. The five-row template was employed to firmly press the seeds into place. A topping soil of equal portions of sand and sandy loam soil was placed uniformly on top of each flat to a depth of approximately 0.5 cm. Flats for postemergence testing were prepared in the same manner except that they were planted 9-14 days prior to the preemergence flats and were placed in a greenhouse and watered, thus allowing the seeds to germinate and the foliage to develop.
In both pre- and postemergence tests, a stock solution of the candidate herbicide was prepared by dissolving 0.27 g of the compound in 20 mL of water/acetone (50/50) containing 0.5% v/v sorbitan monolaurate. For an application rate of 3000 g/ha of herbicide a 10 mL portion of the stock solution was diluted with water/acetone (50/50) to 45 mL.
The preemergence flats were initially subjected to a light water spray. The four flats were placed two by two along a conveyor belt (i.e., the two preemergence followed by the two postemergence flats). The conveyor belt fed under a spray nozzle mounted about ten inches above the postemergent foliage. The preemergent flats were elevated on the belt so that the soil surface was at the same level below the spray nozzle as the foliage canopy of the postemergent plants. The spray of herbicidal solution was commenced and once stabilized, the flats were passed under the spray at a speed to receive a coverage equivalent of 1000 L/ha. At this coverage the application rates are those shown in the above table for the individual herbicidal solutions. The preemergence flats were watered immediately thereafter, placed in the greenhouse and watered regularly at the soil surface. The postemergence flats were immediately placed in the green-house and not watered until 24 hours after treatment with the test solution. Thereafter they were regularly watered at ground level. After 12-17 days the plants were examined and the phytotoxicity data were recorded.
Phytotoxicity data were taken as percent control. Percent control was by a method similar to the 0 to 1 00 rating system disclosed in "Research Methods in Weed Science," 2nd ed., B. Truelove, Ed.; Southern Weed Science Society; Auburn University, Auburn, Ala., 1977.

In experiment [11] the test system is morningglory. Put plainly: postemergence herbicidal activity on morningglory. The experiment is classed as in vivo, Ipomea lacunosa or Ipomea hederacea. The settings on record: Ipomoea, post-emergence, 0.3 Kg/Ha, after 12-17 days, read-out: POSTEMERGENCE HERBICIDAL ACTIVITY (% CONTROL) IPOSS. In a few lines: as §1
In experiment [12] the test system is wheat. Put plainly: preemergence herbicidal activity on wheat. It counts as in vivo, Triticum aestivum var. Lew. The settings on record: Triticum aestivum, pre-emergence, 0.3 Kg/Ha, after 12-17 days, read-out: PREEMERGENCE HERBICIDAL ACTIVITY (% CONTROL) WHT. The method in brief:
as §1

Experiment [13] deals with morningglory. Put plainly: preemergence herbicidal activity on morningglory. The experiment is classed as in vivo, Ipomea lacunosa or Ipomea hederacea. The settings on record: Ipomoea, pre-emergence, 0.3 Kg/Ha, after 12-17 days, read-out: PREEMERGENCE HERBICIDAL ACTIVITY (% CONTROL) IPOSS. In a few lines:
as §1

Experiment [14] relates to blackgrass. Put plainly: postemergence herbicidal activity on blackgrass. The experiment is classed as in vivo, Aloepecurus myosuroides. The settings on record: Alopecurus myosuroides, post-emergence, 0.3 Kg/Ha, after 12-17 days, read-out: POSTEMERGENCE HERBICIDAL ACTIVITY (% CONTROL) ALOMY. In a few lines: as §1
Experiment [15] relates to corn. Kind of experiment: preemergence herbicidal activity on corn. It counts as in vivo, Zea mays var. Pioneer 3732. The settings on record: Zea mays, pre-emergence, 0.3 Kg/Ha, after 12-17 days, read-out: PREEMERGENCE HERBICIDAL ACTIVITY (% CONTROL) CRN. The method in brief: as §1
Experiment [16] deals with velvetleaf. Kind of experiment: postemergence herbicidal activity on velvetleaf. To be noted: Abutilon theophrasti, post-emergence, 0.3 Kg/Ha, after 12-17 days, read-out: POSTEMERGENCE HERBICIDAL ACTIVITY (% CONTROL) ABUTH. The experiment is classed as in vivo. In a few lines:
as §1

Experiment [17] deals with cocklebur. Kind of experiment: postemergence herbicidal activity on cocklebur. The experiment is classed as in vivo, Xanthium strumarium L. The settings on record: Xanthium strumarium, post-emergence, 0.3 Kg/Ha, after 12-17 days, read-out: POSTEMERGENCE HERBICIDAL ACTIVITY (% CONTROL) XANPE. In a few lines:
as §1

Experiment [18] concerns corn. Put plainly: postemergence herbicidal activity on corn. The experiment is classed as in vivo, Zea mays var. Pioneer 3732. The settings on record: Zea mays, post-emergence, 0.3 Kg/Ha, after 12-17 days, read-out: POSTEMERGENCE HERBICIDAL ACTIVITY (% CONTROL) CRN. The method in brief: as §1
In experiment [19] the test system is johnsongrass. Put plainly: postemergence herbicidal activity on johnsongrass. The settings on record: Sorghum halepense, post-emergence, 0.3 Kg/Ha, after 12-17 days, read-out: POSTEMERGENCE HERBICIDAL ACTIVITY (% CONTROL) SORHA. The experiment is classed as in vivo. The method in brief: as §1
Experiment [20] relates to johnsongrass. Kind of experiment: preemergence herbicidal activity on johnsongrass. The experiment is classed as in vivo. The settings on record: Sorghum halepense, pre-emergence, 0.3 Kg/Ha, after 12-17 days, read-out: PREEMERGENCE HERBICIDAL ACTIVITY (% CONTROL) SORHA. The method in brief: as §1

`Cc1nn(-c2cc(CC(Cl)C(C)(C)O)c(Cl)cc2F)c(=O)n1C(F)F` (centres unmarked) [Compound 2]: the activity at 300 g/ha with green foxtail [1] is 80%; in the experiment with chickweed [2], 90%; in the experiment with blackgrass [3], 70%; with chickweed [4], 70%; in the experiment with soybean [5] it was 80%; with velvetleaf [6], 100%. Further, the activity at 300 g/ha came to 60% in the experiment on soybean [7]; 60% in the experiment on wheat [8]; 100% with green foxtail [9]; 60% in the experiment with cocklebur [10]; 100% in the experiment with morningglory [11]; 70% in the experiment on wheat [12]. Moreover, the activity at 300 g/ha in the experiment with morningglory [13] was 100%; with blackgrass [14] it was 70%; in the experiment with corn [15], 80%; with velvetleaf [16], 100%; in the experiment with cocklebur [17], 55%; with corn [18], 80%. Besides, the activity at 300 g/ha in the experiment with johnsongrass [19] is 80%; in the experiment on johnsongrass [20] it was 90%.

For the origin of these results see USH1923H, “Herbicidal (oxaalkyl) phenyl-substituted heterocycles” (FMC Corporation, priority 1998, dated 2000).
